Biological target: T1, Tankyrase 1 (TNKS1) (Homo sapiens, UniProt O95271)
T1 construct: gene TNKS
Assay: fluorescence-based homogeneous NAD+ consumption activity assay
Assay type: biochemical

T1 sequence (O95271 whole entry): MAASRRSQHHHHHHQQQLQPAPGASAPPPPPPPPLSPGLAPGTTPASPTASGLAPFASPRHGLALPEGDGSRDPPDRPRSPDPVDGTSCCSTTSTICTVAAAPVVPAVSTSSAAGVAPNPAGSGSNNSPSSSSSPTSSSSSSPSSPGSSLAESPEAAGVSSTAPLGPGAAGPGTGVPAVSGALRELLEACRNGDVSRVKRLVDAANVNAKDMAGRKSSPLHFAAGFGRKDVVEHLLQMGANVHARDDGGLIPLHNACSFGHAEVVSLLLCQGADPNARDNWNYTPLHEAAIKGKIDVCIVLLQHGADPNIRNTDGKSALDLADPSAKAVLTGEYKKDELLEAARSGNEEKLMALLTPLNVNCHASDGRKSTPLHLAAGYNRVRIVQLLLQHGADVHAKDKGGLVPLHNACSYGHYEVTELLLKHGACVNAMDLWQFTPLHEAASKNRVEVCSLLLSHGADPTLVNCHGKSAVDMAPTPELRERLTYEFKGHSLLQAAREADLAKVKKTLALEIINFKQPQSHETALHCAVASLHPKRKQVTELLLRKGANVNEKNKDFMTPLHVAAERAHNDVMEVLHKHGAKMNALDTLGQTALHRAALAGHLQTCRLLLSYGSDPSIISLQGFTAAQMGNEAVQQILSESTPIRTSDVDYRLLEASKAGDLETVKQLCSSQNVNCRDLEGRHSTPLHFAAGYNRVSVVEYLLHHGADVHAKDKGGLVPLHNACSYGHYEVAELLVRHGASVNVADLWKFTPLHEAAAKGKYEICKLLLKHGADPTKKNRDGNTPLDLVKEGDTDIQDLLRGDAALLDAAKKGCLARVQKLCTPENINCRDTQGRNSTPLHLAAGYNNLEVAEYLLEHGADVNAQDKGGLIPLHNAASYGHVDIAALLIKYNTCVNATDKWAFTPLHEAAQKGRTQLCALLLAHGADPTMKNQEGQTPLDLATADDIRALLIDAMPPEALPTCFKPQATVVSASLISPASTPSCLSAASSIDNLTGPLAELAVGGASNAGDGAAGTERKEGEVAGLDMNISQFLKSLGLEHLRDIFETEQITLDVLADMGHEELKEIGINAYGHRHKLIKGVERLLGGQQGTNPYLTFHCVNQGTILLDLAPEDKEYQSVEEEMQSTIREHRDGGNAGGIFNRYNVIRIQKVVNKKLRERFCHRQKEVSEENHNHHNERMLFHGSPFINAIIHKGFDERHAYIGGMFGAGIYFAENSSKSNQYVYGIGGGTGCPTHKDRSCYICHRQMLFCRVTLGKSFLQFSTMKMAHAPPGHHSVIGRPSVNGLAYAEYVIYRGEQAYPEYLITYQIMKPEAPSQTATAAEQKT

Q: With COc1ccc(-n2c(SCCCN3C(=O)c4cccc5cccc(c45)C3=O)nnc2-c2ccncc2)cc1 [WIKI4] as the compound, how does the IC50 read?
A: 0.026 µM
